We go through ten molecules from patent publication US5968978A, “Biphenylsulfonylcyanamides, process for their preparation, and their use as medicament” (Hoechst Marion Roussel Deutschland, priority 1997, dated 1999).

The structures appear in SMILES notation.

For this test, the system named is Na+-dependent Cl-/HCO3- exchanger (NCBE). Description: Inhibition of the Na+-dependent Cl-/HCO3- exchanger (NCBE) in human endothelial cells (FLIPR, BCECF pHi recovery). The class given is cell-based. The conditions noted are these: inhibitor concentration of 10 μM; human endothelial cells (ECV-304); 50 μM HOE 642 present. On the procedure: Inhibition of the Na^+ -dependent Cl^- /HCO3^- exchanger (NCBE) in human endothelial cells
Human endothelial cells (ECV-304) were detached from culture flasks with the aid of trypsin/EDTA buffer (0.05/0.02% in phosphate buffer) and, after centrifugation (100 g, 5 min), taken up in a buffered salt solution (mmol/l: 115 NaCl, 20 NH4 Cl, 5 KCl, 1 CaCl2, 1 MgSO4, 20 N-(2-hydroxyethyl)-piperazine-N'-2-ethanesulfonic acid (HEPES), 5 glucose and 1 g/l of bovine serumalbumin; pH 7.4). This cell suspension was incubated at 37° C. for 20 min with 5 μM BCECF acetoxymethyl ester. The cells were then washed and resuspended in a sodium- and bicarbonate-free buffer solution (mmol/l: 5 HEPES, 133.8 choline chloride, 4.7 KCl, 1.25 MgCl2, 0.97 K2 HPO4, 0.23 KH2 PO4, 5 glucose; pH 7.4).
The subsequent fluorescence measurement in the FLIPR (Fluorescent Imaging Plate Reader), 100 μl of this cell suspension in each case containing 20000 cells were added by pipette per well of a 96-well microtiter plate and this microtiter plate was centrifuged (100 g, 5 min).
In the FLIPR, 100 μl of buffer solution in each case were then removed from a further prepared microtiter plate and added by pipette to each of the 96 wells of the measuring plate. In this case, for a 100% control, i.e. a recovery of the intracellular pH (pHi) by means of the NCBE, a bicarbonate- and sodium-containing buffer solution (mmol/l: 5 HEPES, 93.8 NaCl, 40 NaHCO3, 4.7 KCl, 1.25 CaCl2, 1.25 MgCl2, 0.97 Na2 HPO4, 0.23 NaH2 PO4, 5 glucose; pH 7.4) which contained 50 μM HOE 642 was used. For a 0% control, i.e. no pHi recovery at all, a bicarbonate-free, sodium-containing buffer solution (mmol/l: 5 HEPES, 133.8 NaCl, 4.7 KCl, 1.25 CaCl2, 1.25 MgCl2, 0.97 Na2 HPO4, 0.23 NaH2 PO4, 5 glucose; pH 7.4) to which 50 μM HOE 642 were also added was employed. The compounds of the formula (I) according to the invention were added in various concentrations of the sodium- and bicarbonate-containing solution.
After addition of the buffer solutions to the dye-loaded acidified cells situated in the measuring plate,the increase in the fluorescence intensity which corresponded to an increase in the pHi was determined in each well of the microtiter plate. The kinetics were in this case recorded at 35° C. over a period of 2 minutes.
The increase in the fluorescence intensities for different concentrations of the compounds according to the invention was related to the two controls and from this the inhibitory action of the substances was determined.
Regarding `N#CNS(=O)(=O)c1ccccc1-c1ccc(C=C2CCCCC2)cc1` [Example 1, 4'-Cyclohexylidenemethylbiphenyl-2-sulfonylcyanamide], the “Residual activity of the NCBE” value is recorded as 68.4%. As to `N#CNS(=O)(=O)c1ccccc1-c1ccc(CC2CCCCC2)cc1` [Example 2, 4'-Cyclohexylmethylbiphenyl-2-sulfonylcyanamide], the “Residual activity of the NCBE” value amounted to 51.6%.

In the case of `N#CNS(=O)(=O)c1ccccc1-c1ccc(C=C2CCCC2)cc1` [Example 3, 4'-Cyclopentylidenemethylbiphenyl-2-sulfonylcyanamide], the “Residual activity of the NCBE” value is reported as 29.4%. Under `N#CNS(=O)(=O)c1ccccc1-c1ccc(C=C2CCCCCC2)cc1` [Example 4, 4'-Cycloheptylidenemethylbiphenyl-2-sulfonylcyanamide] stands 30.5%. For `N#CNS(=O)(=O)c1ccccc1-c1ccc(/C=C\c2ccccc2)cc1` [Example 5, cis-4'-Styrylbiphenyl-2-sulfonylcyanamide], the “Residual activity of the NCBE” value worked out at 21.2%. `N#CNS(=O)(=O)c1ccccc1-c1ccc(/C=C/c2ccccc2)cc1` [Example 6, trans-4'-Styrylbiphenyl-2-sulfonylcyanamide]: the “Residual activity of the NCBE” value is given as 19.3%. With `N#CNS(=O)(=O)c1ccccc1-c1ccc(CCc2ccccc2)cc1` [Example 7, 4'-Phenethylbiphenyl-2-sulfonylcyanamide] the figure was 64.2%; with `N#CNS(=O)(=O)c1ccccc1-c1ccc(/C=C\C2CCCCC2)cc1` [Example 8, cis-4'-(2-Cyclohexylvinyl)biphenyl-2-sulfonylcyanamide], 13.4%; with `N#CNS(=O)(=O)c1ccccc1-c1ccc(/C=C/C2CCCCC2)cc1` [Example 9, trans-4'-(2-Cyclohexylvinyl)biphenyl-2-sulfonylcyanamide], 12.8%. Consider `N#CNS(=O)(=O)c1ccccc1-c1ccc(CCC2CCCCC2)cc1` [Example 10, 4'-(2-Cyclohexylethyl)biphenyl-2-sulfonylcyanamide], for which the “Residual activity of the NCBE” value was 24.3%.
